Tested on: PC12 cells exposed to L-glutamate
Assay: Anti-glutamatergic effect on PC12 cells exposed to L-glutamate (MTT cellular vitality)
Assay type: cell-based
Conditions: 10 μM; PC12 cells exposed to L-glutamate (20 mM) for 24 h; result in words
Method: PC12 constitute a neuron-like cell line widely employed in several models of neurological diseases. The patophysiological mechanisms which can be simulated in those in vitro models, allows the use of PC12 cells in evaluation of therapeutic candidates.
The synthetic spirosteroids series (10 μM of each molecule) was evaluated on PC12 cells exposed to L-glutamate (20 mM) for 24 h. Previously, those cells were routinely cultivated in RPMI 1640 medium, supplemented with equine serum (10%) and fetal bovine serum (5%) in a 37° C. and 5% CO2 atmosphere. In the beginning of the experiment, cells were seeded in 96-well microplates at a cellular density of 150,000 cells/mL. After 24 h of exposition to glutamatergic damage and spirosteroids treatment, cellular vitality was determined with 3-(4,5-dimethylthiazol-2-yl)-2,5-diphenyltetrazolium bromide (MTT), which is metabolized by mitochondrial deshydrogenases in living cells. […] All molecules of the synthetic spirosteroids series were non cytotoxic at the concentration employed for the in vitro anti-glutamatergic assay (data no shown).

Compound	anti-glutamatergic and neuroprotector effect
C[C@@H]1CC[C@@]2(OC1)O[C@H]1C[C@H]3[C@@H]4CC(=O)C5C[C@H](O)[C@H](O)C[C@]5(C)[C@H]4CC[C@]3(C)[C@H]1[C@@H]2C (stereo partly drawn) [2α,3α-dyhydroxy-(25R)-spirostan-6-one]	most active
C[C@@H]1CC[C@@]2(OC1)O[C@H]1C[C@H]3[C@@H]4CC(=O)C5CC(=O)CC[C@]5(C)[C@H]4CC[C@]3(C)[C@H]1[C@@H]2C (stereo partly drawn) [3,6-dione-(25R)-spirostan]	most active

From US20150140088A1, “SPIROSTEROID SYSTEMS ACTING AS NEUROPROTECTIVE AND ANTI-INFLAMMATORY AGENTS” (priority 2011, published 2015)
